Legend:
Assay type in all cases: in vivo
AMAPA [1] = assay: Pre-emergence biological efficacy; conditions: Amaranthus palmeri, 312 h, evaluated after 13 days, read-out: damage to plant (100=total damage to plant; 0=no damage to plant)
Procedure: (§1) Seeds of weeds and/or crops were sown in standard soil in pots. After cultivation for one day under controlled conditions in a glasshouse (at 24/19° C., day/night; 16 hours light), the plants were sprayed with an aqueous spray solution derived from the formulation of the technical active ingredient in a small amount of acetone and a special solvent and emulsifier mixture referred to as IF50 (11.12% Emulsogen EL360 TM+44.44% N-methylpyrrolidone+44.44% Dowanol DPM glycol ether), to create a 50g/l solution which was then diluted using 0.2% Genapol XO80 as diluent to give the desired final dose of test compound.
(§2) The test plants were then grown under controlled conditions in the glasshouse (at 24/18° C., day/night; 15 hours light; 50% humidity) and watered twice daily. After 13 days the test was evaluated (100=total damage to plant; 0=no damage to plant).

ECHCG [2] = assay: Pre-emergence biological efficacy; conditions: Echinochloa crus-galli, 312 h, evaluated after 13 days, read-out: damage to plant (100=total damage to plant; 0=no damage to plant)
Procedure: as §1, §2

EPHHL [3] = assay: Pre-emergence biological efficacy; conditions: Euphorbia heterophylla, 312 h, evaluated after 13 days, read-out: damage to plant (100=total damage to plant; 0=no damage to plant)
Procedure: as §1, §2

IPOHE [4] = assay: Pre-emergence biological efficacy; conditions: Ipomoea hederacea, 312 h, evaluated after 13 days, read-out: damage to plant (100=total damage to plant; 0=no damage to plant)
Procedure: as §1, §2

LOLPE [5] = assay: Pre-emergence biological efficacy; conditions: Lolium perenne, 312 h, evaluated after 13 days, read-out: damage to plant (100=total damage to plant; 0=no damage to plant)
Procedure: as §1, §2

SETFA [6] = assay: Pre-emergence biological efficacy; conditions: Setaria faberi, 312 h, evaluated after 13 days, read-out: damage to plant (100=total damage to plant; 0=no damage to plant)
Procedure: as §1, §2

AMAPA [7] = assay: Post-emergence biological efficacy; conditions: Amaranthus palmeri, 312 h, evaluated after 13 days, read-out: damage to plant (100=total damage to plant; 0=no damage to plant)
Procedure: as §1, with “14 days” for “one day”
(§3) The test plants were then grown under controlled conditions in the glasshouse (at 24/18° C., day/night; 15 hours light; 50% humidity)and watered twice daily. After 13 days the test was evaluated (100=total damage to plant; 0=no damage to plant).

CHEAL = assay: Post-emergence biological efficacy; conditions: Chenopodium album, 312 h, evaluated after 13 days, read-out: damage to plant (100=total damage to plant; 0=no damage to plant)
Procedure: as §1, with “14 days” for “one day”
as §3

DIGSA = assay: Post-emergence biological efficacy; conditions: Digitaria sanguinalis, 312 h, evaluated after 13 days, read-out: damage to plant (100=total damage to plant; 0=no damage to plant)
Procedure: as §1, with “14 days” for “one day”
as §3

ECHCG [8] = assay: Post-emergence biological efficacy; conditions: Echinochloa crus-galli, 312 h, evaluated after 13 days, read-out: damage to plant (100=total damage to plant; 0=no damage to plant)
Procedure: as §1, with “14 days” for “one day”
as §3

ELEIN = assay: Post-emergence biological efficacy; conditions: 312 h, evaluated after 13 days, read-out: damage to plant (100=total damage to plant; 0=no damage to plant)
Procedure: as §1, with “14 days” for “one day”
as §3

EPHHL [9] = assay: Post-emergence biological efficacy; conditions: Euphorbia heterophylla, 312 h, evaluated after 13 days, read-out: damage to plant (100=total damage to plant; 0=no damage to plant)
Procedure: as §1, with “14 days” for “one day”
as §3

IPOHE [10] = assay: Post-emergence biological efficacy; conditions: Ipomoea hederacea, 312 h, evaluated after 13 days, read-out: damage to plant (100=total damage to plant; 0=no damage to plant)
Procedure: as §1, with “14 days” for “one day”
as §3

LOLPE [11] = assay: Post-emergence biological efficacy; conditions: Lolium perenne, 312 h, evaluated after 13 days, read-out: damage to plant (100=total damage to plant; 0=no damage to plant)
Procedure: as §1, with “14 days” for “one day”
as §3

SETFA [12] = assay: Post-emergence biological efficacy; conditions: Setaria faberi, 312 h, evaluated after 13 days, read-out: damage to plant (100=total damage to plant; 0=no damage to plant)
Procedure: as §1, with “14 days” for “one day”
as §3

SMILES | pest or weed control at 250 g/ha (AMAPA [1]) [%] | pest or weed control at 250 g/ha (ECHCG [2]) [%] | pest or weed control at 250 g/ha (EPHHL [3]) [%] | pest or weed control at 250 g/ha (IPOHE [4]) [%] | pest or weed control at 250 g/ha (LOLPE [5]) [%] | pest or weed control at 250 g/ha (SETFA [6]) [%] | pest or weed control at 250 g/ha (AMAPA [7]) [%] | pest or weed control at 250 g/ha (CHEAL) [%] | pest or weed control at 250 g/ha (DIGSA) [%] | pest or weed control at 250 g/ha (ECHCG [8]) [%] | pest or weed control at 250 g/ha (ELEIN) [%] | pest or weed control at 250 g/ha (EPHHL [9]) [%] | pest or weed control at 250 g/ha (IPOHE [10]) [%] | pest or weed control at 250 g/ha (LOLPE [11]) [%] | pest or weed control at 250 g/ha (SETFA [12]) [%]
CCOC(=O)C1(C)CC(c2cc(-c3cc(Cl)cnc3F)c(F)cc2Cl)=NO1 (stereo not drawn) [Compound 1-199, Ethyl 3-[2-chloro-5-(5-chloro-2-fluoro-3-pyridyl)-4-fluoro-phenyl]-5-methyl-4H-isoxazole-5-carboxylate] | 80 | 0 | 30 | 0 | 10 | 10 | 100 | 90 | 50 | 70 | 20 | 90 | 100 | 40 | 60
CCOC(=O)C1(C)CC(c2cc(-c3cccnc3F)c(F)cc2Cl)=NO1 (stereo not drawn) [Compound 1-211, Ethyl 3-[2-chloro-4-fluoro-5-(2-fluoro-3-pyridyl)phenyl]-5-methyl-4H-isoxazole-5-carboxylate] | 0 | 0 | 0 | 0 | 0 | 0 | 100 | 90 | 10 | 20 | 20 | 30 | 50 | 0 | 20
CCOC(=O)C1(C)CC(c2cc(-c3cc(C)cnc3F)c(F)cc2Cl)=NO1 (stereo not drawn) [Compound 1-223, Ethyl 3-[2-chloro-4-fluoro-5-(2-fluoro-5-methyl-3-pyridyl)phenyl]-5-methyl-4H-isoxazole-5-carboxylate] | 0 | 0 | 0 | 0 | 0 | 0 | 100 | 80 | 30 | 50 | 10 | 70 | 100 | 20 | 80
CCOC(=O)C1(C)CC(c2cc(-c3cc(C(F)(F)F)cnc3F)c(F)cc2Cl)=NO1 (stereo not drawn) [Compound 1-235, Ethyl 3-[2-chloro-4-fluoro-5-[2-fluoro-5-(trifluoromethyl)-3-pyridyl]phenyl]-5-methyl-4H-isoxazole-5-carboxylate] | 100 | 0 | 50 | 60 | 0 | 0 | 100 | 100 | 70 | 60 | 100 | 100 | 100 | 60 | 100
CCOC(=O)C1(C)CC(c2cc(-c3cccnc3)c(F)cc2Cl)=NO1 (stereo not drawn) [Compound 1-247, Ethyl 3-[2-chloro-4-fluoro-5-(3-pyridyl)phenyl]-5-methyl-4H-isoxazole-5-carboxylate] | 60 | 0 | 0 | 0 | 0 | 0 | 0 | 0 | 0 | 0 | 10 | 10 | 0 | 0 | 0
CCOC(=O)C1(C)CC(c2cc(-c3cnccc3OC)c(F)cc2Cl)=NO1 (stereo not drawn) [Compound 1-259, Ethyl 3-[2-chloro-4-fluoro-5-(4-methoxy-3-pyridyl)phenyl]-5-methyl-4H-isoxazole-5-carboxylate] | 0 | 0 | 0 | 0 | 0 | 0 | 60 | 80 | 40 | 20 | 20 | 20 | 30 | 0 | 30
CCOC(=O)C1(C)CC(c2cc(-c3cncc(Cl)c3)c(F)cc2Cl)=NO1 (stereo not drawn) [Compound 1-271, Ethyl 3-[2-chloro-5-(5-chloro-3-pyridyl)-4-fluoro-phenyl]-5-methyl-4H-isoxazole-5-carboxylate] | 0 | 0 | 0 | 0 | 0 | 0 | 90 | 70 | 20 | 20 | 20 | 40 | 100 | 0 | 50
CCOC(=O)C1(C)CC(c2cc(-c3ccc(C)nc3)c(F)cc2Cl)=NO1 (stereo not drawn) [Compound 1-283, Ethyl 3-[2-chloro-4-fluoro-5-(6-methyl-3-pyridyl)phenyl]-5-methyl-4H-isoxazole-5-carboxylate] | 0 | 0 | 20 | 0 | 0 | 0 | 70 | 30 | 20 | 10 | 0 | 60 | 40 | 0 | 20
CCOC(=O)C1(C)CC(c2cc(-c3ccnc(F)c3)c(F)cc2Cl)=NO1 (stereo not drawn) [Compound 1-295, Ethyl 3-[2-chloro-4-fluoro-5-(2-fluoro-4-pyridyl)phenyl]-5-methyl-4H-isoxazole-5-carboxylate] | 0 | 0 | 0 | 0 | 0 | 0 | 90 | 70 | 10 | 10 | 10 | 50 | 50 | 0 | 10
